Data on 2 compounds can be found in US20080254462A1, “ALTERED ZDHHC8 EXPRESSION AS A MARKER OF INCREASED RISK OF SCHIZOPHRENIA” (priority 2005, published 2008).

Series [1] concerns homozygous Zdhhc8 mutant mice and wild-type littermate controls. Description: Locomotor activating effects of MK801 in the open field. It counts as in vivo. As to the method:
Open field assay. Animals were not pre-exposed to the chamber before testing. Activity was monitored in a clear acrylic chamber directly illuminated and equipped with infrared sensors for the automatic recording of horizontal and vertical activity (Colbourn Instruments). Each animal was placed initially in the periphery of the chamber, and recordings of the total distance traveled, the number of rearings (vertical moves) and the number of entries in the centerfield over the next 15 min were used as a measure of a locomotor response to novelty. 47 female mice (17 homozygous Zdhhc8 mutant, 17 heterozygous Zdhhc8 mutant and 13 wild-type littermate controls) and 45 male mice (13 homozygous Zdhhc8 mutant, 19 heterozygous Zdhhc8 mutant and 13 wild-type littermate controls) were tested.
Drug administration. MK801 was purchased from Sigma. Each experimental group consisted of 8-10 mice, which received the same number of injections, administered intraperitoneally, of either drug (0.4 mg per kg body weight) or vehicle. After 30 minutes of prehabituation in the open field, the mice were removed, injected and then left to rest for 10 minutes in their home cage before returning them to the open field arena, where they were monitored for an additional 30 minutes. […]

The test system of series [2] is PSD95 (Post-Synaptic Density-95).

As for `C[C@]12N[C@H](Cc3ccccc31)c1ccccc12` [MK801, dizocilpine], the “Sensitivity to MK801-induced stimulation of locomotor activity (ratio of activity after injection to activity before injection)” value in series [1] (homozygous Zdhhc8 mutant female mice vs wild-type littermate controls, 0.4 mg per kg intraperitoneally, P=0.05, not in males) is “somewhat less sensitive to MK801-induced stimulation of locomotor activity than wild-type littermate controls”. Also, the “Locomotor stimulation after MK801 injection” value in series [1] (open field, 0.4 mg per kg body weight intraperitoneally, 30 minutes before and 30 minutes after injection, both genotypes, females and males) is “Locomotor stimulation after MK801 injection was observed in both genotypes in both females (E) and males (F)”. For the compound “ZDHHC8 mutant "230" (lacks the entire C-terminal domain)”, the “metabolic labeling assay (palmitoylation of PSD95)” value in series [2] was “this form shows no essentially no activity when compared with vector-only control”.
